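Interpolation was linear, between the two tested concentrations surrounding the appropriate level; five concentrations were tested over 48 hours in 96-well plates. GI50 is the concentration that inhibits growth by half. The concentration for full growth arrest is given as TGI.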
Tests used:
Assay in all cases: NCI anticancer screen, dose series, 48 h
MCF7 breast = test system: MCF7 breast
COLO 205 colon = test system: COLO 205 colon
ACHN renal = test system: ACHN renal
DU-145 prostate = test system: DU-145 prostate
MOLT-4 leukemia = test system: MOLT-4 leukemia
A549 NSCLC = test system: A549 NSCLC
SR leukemia = test system: SR leukemia
SK-OV-3 ovarian = test system: SK-OV-3 ovarian
SK-MEL-28 melanoma = test system: SK-MEL-28 melanoma
SNB-19 CNS = test system: SNB-19 CNS
HT29 colon = test system: HT29 colon
UACC-257 melanoma = test system: UACC-257 melanoma
NCI-H23 lung = test system: NCI-H23 lung
BT-549 breast = test system: BT-549 breast
NCI-H460 lung = test system: NCI-H460 lung
NCI/ADR-RES ovarian = test system: NCI/ADR-RES ovarian
NCI-H522 lung = test system: NCI-H522 lung
SF-268 CNS = test system: SF-268 CNS
MALME-3M melanoma = test system: MALME-3M melanoma
IGROV1 ovarian = test system: IGROV1 ovarian
HOP-62 NSCLC = test system: HOP-62 NSCLC
T-47D breast = test system: T-47D breast
SK-MEL-2 melanoma = test system: SK-MEL-2 melanoma
CCRF-CEM leukemia = test system: CCRF-CEM leukemia
SNB-75 CNS = test system: SNB-75 CNS
PC-3 prostate = test system: PC-3 prostate
MDA-MB-231 breast = test system: MDA-MB-231 breast
LOX IMVI melanoma = test system: LOX IMVI melanoma
U251 CNS = test system: U251 CNS
M14 melanoma = test system: M14 melanoma
CAKI-1 renal = test system: CAKI-1 renal
HCC-2998 colon = test system: HCC-2998 colon
SF-539 CNS = test system: SF-539 CNS
UO-31 renal = test system: UO-31 renal
OVCAR-4 ovarian = test system: OVCAR-4 ovarian
OVCAR-8 ovarian = test system: OVCAR-8 ovarian
OVCAR-5 ovarian = test system: OVCAR-5 ovarian
786-0 renal = test system: 786-0 renal
SW-620 colon = test system: SW-620 colon
MDA-MB-435 = test system: MDA-MB-435
TK-10 renal = test system: TK-10 renal
SN12C renal = test system: SN12C renal
HOP-92 NSCLC = test system: HOP-92 NSCLC
HS 578T breast = test system: HS 578T breast
K-562 leukemia = test system: K-562 leukemia
HL-60(TB) leukemia = test system: HL-60(TB) leukemia
SF-295 CNS = test system: SF-295 CNS
HCT-15 colon = test system: HCT-15 colon
OVCAR-3 ovarian = test system: OVCAR-3 ovarian
A498 renal = test system: A498 renal
NCI-H226 lung = test system: NCI-H226 lung
RPMI-8226 leukemia = test system: RPMI-8226 leukemia
EKVX NSCLC = test system: EKVX NSCLC
UACC-62 melanoma = test system: UACC-62 melanoma
RXF 393 renal = test system: RXF 393 renal
HCT-116 colon = test system: HCT-116 colon
KM12 colon = test system: KM12 colon
SK-MEL-5 melanoma = test system: SK-MEL-5 melanoma

SMILES: COc1ccc(-c2cc(-c3ccccc3)nc(SCCCC(=O)NO)n2)cc1
- GI50 (MCF7 breast): 1900 nM
- TGI (MCF7 breast): 10000 nM
- GI50 (COLO 205 colon): 2080 nM
- TGI (COLO 205 colon): 6940 nM
- GI50 (ACHN renal): 356 nM
- TGI (ACHN renal): 1460 nM
- GI50 (DU-145 prostate): 1060 nM
- TGI (DU-145 prostate): 9580 nM
- GI50 (MOLT-4 leukemia): 758 nM
- TGI (MOLT-4 leukemia): 10900 nM
- GI50 (A549 NSCLC): 1740 nM
- TGI (A549 NSCLC): 8450 nM
- GI50 (SR leukemia): 363 nM
- TGI (SR leukemia): > 33300 nM
- GI50 (SK-OV-3 ovarian): 1740 nM
- TGI (SK-OV-3 ovarian): 5540 nM
- GI50 (SK-MEL-28 melanoma): 1250 nM
- TGI (SK-MEL-28 melanoma): 3120 nM
- GI50 (SNB-19 CNS): 2190 nM
- TGI (SNB-19 CNS): 9270 nM
- GI50 (HT29 colon): 1640 nM
- TGI (HT29 colon): 10900 nM
- GI50 (UACC-257 melanoma): 1600 nM
- TGI (UACC-257 melanoma): 8340 nM
- GI50 (NCI-H23 lung): 1510 nM
- TGI (NCI-H23 lung): 4750 nM
- GI50 (BT-549 breast): 2760 nM
- TGI (BT-549 breast): 13100 nM
- GI50 (NCI-H460 lung): 468 nM
- TGI (NCI-H460 lung): 5650 nM
- GI50 (NCI/ADR-RES ovarian): 267 nM
- TGI (NCI/ADR-RES ovarian): 1600 nM
- GI50 (NCI-H522 lung): 808 nM
- TGI (NCI-H522 lung): 4320 nM
- GI50 (SF-268 CNS): 1660 nM
- TGI (SF-268 CNS): 5160 nM
- GI50 (MALME-3M melanoma): 1000 nM
- TGI (MALME-3M melanoma): 4820 nM
- GI50 (IGROV1 ovarian): 1110 nM
- TGI (IGROV1 ovarian): 3830 nM
- GI50 (HOP-62 NSCLC): 994 nM
- TGI (HOP-62 NSCLC): 8880 nM
- GI50 (T-47D breast): 804 nM
- TGI (T-47D breast): 15100 nM
- GI50 (SK-MEL-2 melanoma): 2300 nM
- TGI (SK-MEL-2 melanoma): 9260 nM
- GI50 (CCRF-CEM leukemia): 387 nM
- TGI (CCRF-CEM leukemia): 13500 nM
- GI50 (SNB-75 CNS): 964 nM
- TGI (SNB-75 CNS): 4950 nM
- GI50 (PC-3 prostate): 1610 nM
- TGI (PC-3 prostate): 8390 nM
- GI50 (MDA-MB-231 breast): 1570 nM
- TGI (MDA-MB-231 breast): 6100 nM
- GI50 (LOX IMVI melanoma): 240 nM
- TGI (LOX IMVI melanoma): 1950 nM
- GI50 (U251 CNS): 1120 nM
- TGI (U251 CNS): 4220 nM
- GI50 (M14 melanoma): 894 nM
- TGI (M14 melanoma): 3920 nM
- GI50 (CAKI-1 renal): 335 nM
- TGI (CAKI-1 renal): 1450 nM
- GI50 (HCC-2998 colon): 1700 nM
- TGI (HCC-2998 colon): 3810 nM
- GI50 (SF-539 CNS): 1470 nM
- TGI (SF-539 CNS): 4320 nM
- GI50 (UO-31 renal): 239 nM
- TGI (UO-31 renal): 991 nM
- GI50 (OVCAR-4 ovarian): 1260 nM
- TGI (OVCAR-4 ovarian): 9010 nM
- GI50 (OVCAR-8 ovarian): 389 nM
- TGI (OVCAR-8 ovarian): 19800 nM
- GI50 (OVCAR-5 ovarian): 979 nM
- TGI (OVCAR-5 ovarian): 6090 nM
- GI50 (786-0 renal): 573 nM
- TGI (786-0 renal): 3490 nM
- GI50 (SW-620 colon): 484 nM
- TGI (SW-620 colon): 4850 nM
- GI50 (MDA-MB-435): 995 nM
- TGI (MDA-MB-435): 3110 nM
- GI50 (TK-10 renal): 369 nM
- TGI (TK-10 renal): 9630 nM
- GI50 (SN12C renal): 1610 nM
- TGI (SN12C renal): 8000 nM
- GI50 (HOP-92 NSCLC): 1710 nM
- TGI (HOP-92 NSCLC): 5420 nM
- GI50 (HS 578T breast): 1660 nM
- TGI (HS 578T breast): 9270 nM
- GI50 (K-562 leukemia): 762 nM
- TGI (K-562 leukemia): 18000 nM
- GI50 (HL-60(TB) leukemia): 1180 nM
- TGI (HL-60(TB) leukemia): 7000 nM
- GI50 (SF-295 CNS): 826 nM
- TGI (SF-295 CNS): 2540 nM
- GI50 (HCT-15 colon): 387 nM
- TGI (HCT-15 colon): 3340 nM
- GI50 (OVCAR-3 ovarian): 1200 nM
- TGI (OVCAR-3 ovarian): 5170 nM
- GI50 (A498 renal): 816 nM
- TGI (A498 renal): 2530 nM
- GI50 (NCI-H226 lung): 1680 nM
- TGI (NCI-H226 lung): 6080 nM
- GI50 (RPMI-8226 leukemia): 454 nM
- TGI (RPMI-8226 leukemia): > 22900 nM
- GI50 (EKVX NSCLC): 1660 nM
- TGI (EKVX NSCLC): 8070 nM
- GI50 (UACC-62 melanoma): 756 nM
- TGI (UACC-62 melanoma): 2530 nM
- GI50 (RXF 393 renal): 338 nM
- TGI (RXF 393 renal): 1400 nM
- GI50 (HCT-116 colon): 531 nM
- TGI (HCT-116 colon): 12700 nM
- GI50 (KM12 colon): 1720 nM
- TGI (KM12 colon): 5290 nM
- GI50 (SK-MEL-5 melanoma): 1260 nM
- TGI (SK-MEL-5 melanoma): 2750 nM

From PubChem BioAssay (NCI)
